Measurements taken from US5968980A, “1,3-dialkylurea derivative” (Santen Pharmaceutical Co., Ltd., priority 1994, dated 1999).
pIC50: −log10 of the molar value.

Biological target: T1, endopeptidase 24.11 (Rattus norvegicus, UniProt P07861)
T1 construct: A kidney was excised from a Wistar rat; from tissue; host or cells: Wistar rat kidney, crude membrane pellet suspended in HEPES buffer
T1 sequence (P07861 1-750): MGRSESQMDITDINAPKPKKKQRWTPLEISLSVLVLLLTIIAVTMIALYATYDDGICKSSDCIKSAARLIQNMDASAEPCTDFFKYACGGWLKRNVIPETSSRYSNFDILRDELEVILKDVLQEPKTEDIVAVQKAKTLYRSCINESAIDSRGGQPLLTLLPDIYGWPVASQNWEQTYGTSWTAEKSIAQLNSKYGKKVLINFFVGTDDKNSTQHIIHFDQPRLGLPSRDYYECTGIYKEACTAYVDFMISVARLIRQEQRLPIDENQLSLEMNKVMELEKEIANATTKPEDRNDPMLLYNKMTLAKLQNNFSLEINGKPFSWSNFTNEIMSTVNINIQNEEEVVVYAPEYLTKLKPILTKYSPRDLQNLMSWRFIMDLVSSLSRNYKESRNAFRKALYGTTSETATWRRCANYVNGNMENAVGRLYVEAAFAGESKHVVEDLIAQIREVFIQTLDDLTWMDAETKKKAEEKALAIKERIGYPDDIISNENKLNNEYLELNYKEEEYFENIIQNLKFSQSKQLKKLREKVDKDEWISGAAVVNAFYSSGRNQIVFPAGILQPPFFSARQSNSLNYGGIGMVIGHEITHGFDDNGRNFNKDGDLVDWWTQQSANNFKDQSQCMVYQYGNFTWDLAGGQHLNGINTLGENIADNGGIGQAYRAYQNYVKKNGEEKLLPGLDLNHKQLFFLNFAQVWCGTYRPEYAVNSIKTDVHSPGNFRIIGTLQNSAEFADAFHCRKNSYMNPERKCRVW
Test: inhibition of endopeptidase 24.11 activity (DAGNPG cleavage, fluorescence, rat kidney enzyme preparation)
Assay type: biochemical
Settings: DAGNPG 50 μM, 37° C., 30 minutes, pH 7.4, rat kidney enzyme preparation; read-out: IC50 (concentration required to inhibit endopeptidase 24.11 by 50%)
Description: As a method for measuring endopeptidase 24.11 activity, Florentin et al. had reported a method for measuring the enzyme activity by a degree of cleavage of a peptide bond between glycine and p-nitrophenylalanine using N-dansyl-D-alanyl-glycyl-p-nitrophenylalanyl-glycine (DAGNPG) as a substrate (Anal. Biochem., 141, 62-69 (1984)). An effect of the present compounds on endopeptidase 24.11 was examined according to the method described in the literature.
An enzyme preparation used in this pharmacological test was prepared by extracting from a rat kidney by the following method according to the method of Malfloy et al. (J. Biol. Chem., 259, 14365-14370 (1984)).
A kidney was excised from a Wistar rat. The kidney was homogenized in Tris-hydrochloric acid buffer (5 mM, pH 7.4, containing 125 mM D-mannitol and 12 mM magnesium chloride). The homogenate was centrifuged at low speed (1,000×g) to give a supernatant. The supernatant was ultracentrifuged ([…]) for 120 minutes. The resulting pellet was suspended in Tris-hydrochloric acid buffer (2.5 mM, pH 7.4, containing 62.5 mM D-mannitol and 6 mM magnesium chloride). The suspension was centrifuged at low speed and then ultracentrifuged again. The resulting pellet was suspended in HEPES buffer (5 mM, pH 7.4) to give the enzyme preparation.
In order to examine the effect of the present compounds on the enzyme preparation, reactions were performed under the following condition using mixed solutions consisting of the composition shown in Table 1.
Enzyme preparation 0.3-0.5 μg protein
The above-mentioned solution (150 μl) was incubated at 37° C. for 30 minutes and then boiled at 100° C. for five minutes. To the solution was added 1.35 ml of Tris-hydrochloric acid buffer (50 mM, pH 7.4). The mixture was centrifuged at moderate speed (5,000×g) for five minutes to give a supernatant. Fluorescence intensity of the supernatant (excitation at 342 nm of wave length and emission at 562 nm) was measured.
The degree of the inhibitory effect of each test compound on the enzyme preparation is expressed by the inhibition rate calculated by the following equation. [formula]
A: fluorescence intensity of the sample in the absence of the test compound
B: fluorescence intensity of the sample in the presence of the test compound

Row | pIC50 | SMILES
1 | 9.26 | CC(C)CN(CC(CCc1ccccc1)C(=O)O)C(=O)N[C@@H](Cc1ccc(-c2ccccc2)cc1)C(=O)O (mixture of isomers) [Compound No. 5-6, (2S)-3-(4-Biphenylyl)-2-[3-[(2RS)-2-carboxy-4-phenylbutyl]-3-isobutylureido]propionic acid]
2 | 8.40 | CC(C)CCC(CN(CC(C)C)C(=O)N[C@@H](Cc1ccc(-c2ccccc2)cc1)C(=O)O)C(=O)O (mixture of isomers) [Compound No. 7-3, (2S)-3-(4-Biphenylyl)-2-[3-[(2RS)-2-carboxy-5-methylhexyl]-3-isobutylureido]propionic acid]
3 | 8.51 | CC(C)CN(CC(CCc1ccccc1)C(=O)O)C(=O)N[C@@H](Cc1ccc2ccccc2c1)C(=O)O (mixture of isomers) [Compound No. 7-6, (2S)-2-[3-[(2RS)-2-Carboxy-4-phenylbutyl]-3-isobutylureido]-3-(2-naphthyl)propionic acid]
4 | 9.03 | CC(C)CN(CC(OCc1ccccc1)C(=O)O)C(=O)N[C@@H](Cc1ccc(-c2ccccc2)cc1)C(=O)O (single isomer, unassigned) [Compound No. 8-1, (2S)-2-[3-[(2S or 2R)-2-Benzyloxy-2-carboxyethyl]-3-isobutylureido]-3-(4-biphenylyl)propionic acid]
5 | 9.24 | CC(C)CN(CC(CCc1ccccc1)C(=O)O)C(=O)N[C@@H](Cc1ccc(-c2ccccc2)cc1)C(=O)O (single isomer, unassigned) [Compound No. 9-1, (2S)-3-(4-Biphenylyl)-2-[3-[(2S or 2R)-2-carboxy-4-phenylbutyl]-3-isobutylureido]propionic acid]
6 | 8.68 | CC(C)CN(CC(CCc1ccccc1)C(=O)NO)C(=O)N[C@@H](Cc1ccc(-c2ccccc2)cc1)C(=O)O (single isomer, unassigned) [Compound No. 10-1, (2S)-3-(4-Biphenylyl)-2-[3-[(2S or 2R)-2-hydroxycarbamoyl-4-phenylbutyl]-3-isobutylureido]propionic acid]
7 | 8.89 | CC(C)CN(CCC(=O)O)C(=O)N[C@@H](Cc1ccc(-c2ccccc2)cc1)C(=O)O [Compound No. 5-1, (2S)-3-(4-Biphenylyl)-2-[3-(2-carboxyethyl)-3-isobutylureido]propionic acid]
8 | 8.03 | CC(C)CN(CCC(=O)O)C(=O)N[C@@H](Cc1ccc2ccccc2c1)C(=O)O [Compound No. 5-21, (2S)-2-[3-(2-Carboxyethyl)-3-isobutylureido]-3-(2-naphthyl)propionic acid]
